The subject of data set [1] is 25-month-old female mice. As to the kind of experiment: SDH and NADPH staining of extensor digitorum longus muscle of indoprofen-administered old mice. The data set is classed as in vivo, mouse. The conditions noted are these: old (25-month-old) mice, oral in corn oil, 4 weeks. Here is the method:
Immediately after separation, extensor digitorum longus muscles were fixed in OCT compound and frozen using liquid nitrogen, and then sectioned to a thickness of 7 μm with a cryo-cut freezing microtome. After SDH staining, the frozen tissue sections were reacted in 0.2 M phosphate buffer (pH 7.4) containing SDH at 37° C. for 10 minutes, washed with distilled water, and then sealed, followed by observation. For NADPH staining, the frozen tissue sections were reacted in 3.5 mM phosphate buffer (pH 7.4) containing 0.9 mM NADH, and 1.5 mM nitro blue tetrazolium at 37° C. for 30 minutes, washed with distilled water, and then sealed, followed by observation.
25-month-old female mice (weighing 30 g) were orally administered with indoprofen mixed with corn oil as an experimental group or corn oil only as a control group for 4 weeks. […] Staining of SDH and NADPH in extensor digitorum longus muscles of the old mice orally administered with indoprofen for 4 weeks was performed in the same manner as in 4 of Example 3.

For data set [2], the system named is mouse. The conditions noted are these: cited from earlier work.
In data set [3] the test system is C57BL/6 female mice. As to the kind of experiment: Observation of lower limb muscles and heart of mice administered with indoprofen. The format is in vivo, mouse. The conditions noted are these: 1.5 mg/kg orally twice a day. Here is the method: 10 week-old C57BL/6 female mice were bred at a temperature of 22±2° C., humidity of 55±5%, and a light-dark cycle of 12:12 hours. Mice were orally administered 1.5 mg/kg of indoprofen in 100 μl of PBS twice a day. A control group was orally administered with 100 μl of PBS twice a day. The mice were allowed free access to drinking water. Skeletal muscles were separated from the mice fed with indoprofen for 2 weeks, and subjected to immunoblot analysis. To evaluate functional consequence of PGC-1α increased by indoprofen treatment of skeletal muscle, lower limb muscles and organs of mice fed with indoprofen for 2 weeks were separated and analyzed.

Data set [4] has as its system C57BL/6 female mice. As to the kind of experiment: Immunohistochemistry of 2a/2b type muscle fiber in extensor digitorum longus muscles of indoprofen-treated mice. The conditions noted are these: oral, 2 weeks. The data set is classed as in vivo, mouse. As to the method: 10 week-old C57BL/6 female mice were bred at a temperature of 22±2° C., humidity of 55±5%, and a light-dark cycle of 12:12 hours. Mice were orally administered 1.5 mg/kg of indoprofen in 100 μl of PBS twice a day. A control group was orally administered with 100 μl of PBS twice a day. The mice were allowed free access to drinking water. Skeletal muscles were separated from the mice fed with indoprofen for 2 weeks, and subjected to immunoblot analysis. To examine distribution of 2a type muscle fiber and 2b type muscle fiber, extensor digitorum longus muscles of mice administered with indoprofen for 2 weeks were subjected to immunohistochemistry. 2a type muscle fiber is an oxidative muscle fiber type, and there are two types: aerobic, that is, oxygen-dependent energy source and anaerobic, that is, oxygen-independent energy source. 2b type muscle fiber is a glycolytic muscle fiber type, and includes only anaerobic energy source. Frozen sections stored in a deep freezer of −80° C. were washed with 1×PBS twice, and fixed with 4% paraformaldehyde at room temperature for 15 minutes, and then washed with 1×PBS twice. The tissue and a permeabilization buffer (0.2% Triton-X/PBS) were reacted at room temperature for 30 minutes, and washed with 1×PBS twice. […] After sealing, a fluorescence microscope (Nikon, body: Ti-u, camera: DS-RI1, program: NIS-elements BR 3.1) was used for analysis.

In data set [5] the test system is C2C12 myoblasts. As to the kind of experiment: Differentiation of indoprofen-treated myoblasts (MHC antibody fluorescence staining, DAPI). The conditions noted are these: 10 μM or 100 μM, differentiation 3 days, vs DMSO control (FIG. 2). The data set is classed as cell-based. As to the method:
C2C12 myoblasts were treated with 10 μM or 100 μM indoprofen and allowed to differentiate for 3 days. A control group was treated with DMSO alone. Fluorescence staining of C2C12 myotubes was performed using MHC antibody. The number of nuclei within one myotube was counted by DAPI staining. C2C12 cells were differentiated in DMED supplemented with 2% horse serum for 72 hours. The cells were washed with 1×PBS, and then fixed in 4% paraformaldehyde at room temperature for 15 minutes, followed by washing with 1×PBS three times. The cells were reacted with a permeabilizing buffer supplemented with 0.2% Triton-X for 10 minutes, and then washed with 1×PBS three times, followed by blocking using 5% fetal bovine serum at room temperature for 1 hour. A primary antibody, anti-MHC, was diluted with 5% goat serum at a ratio of 1:500 and allowed to react at 4° C. for 12 hours, followed by washing with 1×PBS three times. A secondary antibody, anti-mouse IgG-HRP 594 (Invitrogen) was diluted with 5% goat serum at a ratio of 1:500 and allowed to react at 4° C. for 1 hour, followed by washing with 1×PBS three times. DAPI is diluted with 1×PBS at a ratio of 1:10000 and allowed to react for 1 minute, followed by washing with 1×PBS and fluorescence microscopy.

The subject of data set [6] is C2C12 myoblasts. As to the kind of experiment: Immunoblot of PGC-1α, differentiation markers and mitochondrial protein in indoprofen-treated myoblasts. The format is cell-based. As to the method: The effect of indoprofen on the differentiation of C2C12 myoblasts into muscle cells was analyzed. Dulbecco's Modified Eagle Medium (DMEM) supplemented with 15% fetal bovine serum was used as a growth medium for the culture of C2C12 myoblasts, and DMEM supplemented with 2% horse serum was used as a differentiation medium for differentiation into muscle cells. To induce differentiation of C2C12 myoblasts into muscle cells, 10 μM or 100 μM indoprofen dissolved in DMSO was added to the experimental groups, and DMSO alone was added to the control group. The cells were cultured for 48 hours to induce differentiation, and then a RIPA buffer (50 mM Tris-HCl, pH 7.5, 150 mM NaCl, 1% Triton X100, 0.1% SDS, 2 mM EDTA, 0.5% sodium deoxycholate, Proteinase Inhibitor) was added to the harvested cells to allow lysis for 30 minutes, followed by centrifugation at 13,000 rpm for 30 minutes. The amount of protein in the cell lysis sample was quantified and an equal amount of protein was subjected to 7% or 15% SDS-PAGE. The protein was transferred onto a PVDF membrane, and then incubated in a blocking buffer containing 5% skim milk for 1 hour. Primary antibodies specific to individual proteins, diluted in 5% BSA, are reacted with the membrane at 4° C. for 12 hours, and then the membrane was washed with a wash buffer for 5 minutes three times. Secondary antibodies were diluted with the blocking buffer and allowed to react with the membrane at room temperature for 1 hour. Thereafter, the membrane was washed with the wash buffer for 5 minutes three times, and then exposed to X-ray film using an ECL reagent (Roche) to confirm protein expression levels.
A general note: Immunoblotting shows a protein as a band on a membrane.

Data set [7] relates to C57BL/6 female mice. As to the kind of experiment: Immunoblotting of tibialis anterior muscles of mice administered with indoprofen. The format is in vivo, mouse. The conditions noted are these: 1.5 mg/kg orally twice a day, 2 weeks, 10 week-old mice, vs PBS control (FIG. 3A). As to the method:
10 week-old C57BL/6 female mice were bred at a temperature of 22±2° C., humidity of 55±5%, and a light-dark cycle of 12:12 hours. Mice were orally administered 1.5 mg/kg of indoprofen in 100 μl of PBS twice a day. A control group was orally administered with 100 μl of PBS twice a day. The mice were allowed free access to drinking water. Skeletal muscles were separated from the mice fed with indoprofen for 2 weeks, and subjected to immunoblot analysis.

Data set [8] concerns human PGC-1α promoter. Briefly: PGC-1α promoter luciferase reporter screening in C2C12-PGC-1α reporter cell line. The format is cell-based, mouse. The conditions noted are these: 10 μM, 48 hours, C2C12-PGC-1α reporter cells, vs DMSO control. (Reporter assays use an easily measured gene product as a stand-in for the process of interest.)
Experimental: To screen a compound activating PGC-1α gene expression in C2C12 myoblast cells, a PGC-1α reporter-expressing C2C12 cell line (hereinafter, referred to as ‘PGC-1α reporter cell line’ or ‘C2C12-PGC-1α cell line) was established. A vector expressing luciferase and dscGFP (destabilized Green Fluorescent Protein) under a human PGC-1α promoter having a length of 1 kb was prepared, and this vector was inserted into lentivirus to transfect C2C12 cells. To select a cell line that genetically stably expressed the vector, fluorescence emitted from green fluorescent protein (GFP) included in the vector was monitored. 5 μg/ml of puromycin, a selection marker for the vector, was added to a cell culture medium, and a cell line expressing PGC-1α reporter was selected. […] The expression level is measured by luminescence after addition of a luciferase substrate, thereby determining activation or inhibition of PGC-1α transcription by the compound.
The C2C12-PGC-1α reporter cell line prepared in Section 1 was used to screen a PGC-1α expression regulator from 2320 compounds provided by Korea Chemical Bank. […] 48 hours later, luminescence by luciferase was measured. […] Then, luminescence is measured. The measured values were normalized to each well and plate, and a value measured in a well treated with a solvent of the compound, DMSO, is used as a control group to express the value as a relative ratio.
Data set [9] deals with 25-month-old female mice. As to the kind of experiment: Weighing lower limb muscles of old mice administered with indoprofen. The data set is classed as in vivo, mouse. The conditions noted are these: old (25-month-old) mice, fed 4 weeks (FIG. 4C). From the text: To analyze changes in the muscle weight of old mouse by administration of indoprofen, lower limb muscles were separated from 25-month-old female mice (weighing 30 g) fed with indoprofen for 4 weeks.

The test system of data set [10] is C57BL/6 female mice. Briefly: SDH and NADPH staining of extensor digitorum longus muscle of indoprofen-administered mice. The format is in vivo, mouse. The conditions noted are these: oral, 2 weeks, 10 week-old mice. Here is the method: 10 week-old C57BL/6 female mice were bred at a temperature of 22±2° C., humidity of 55±5%, and a light-dark cycle of 12:12 hours. Mice were orally administered 1.5 mg/kg of indoprofen in 100 μl of PBS twice a day. A control group was orally administered with 100 μl of PBS twice a day. The mice were allowed free access to drinking water. Skeletal muscles were separated from the mice fed with indoprofen for 2 weeks, and subjected to immunoblot analysis. Staining of succinic dehydrogenase (SDH) and NADPH in the extensor digitorum longus muscle of a mouse administered with indoprofen for 2 weeks was performed. This staining method is a method of analyzing mitochondrial activity by measuring activities of SDH and NADPH which are enzymes involved in the electron transport chain of mitochondria. Staining degree of SDH and NADPH represents a content of oxidative muscle fiber. Immediately after separation, extensor digitorum longus muscles were fixed in OCT compound and frozen using liquid nitrogen, and then sectioned to a thickness of 7 μm with a cryo-cut freezing microtome. After SDH staining, the frozen tissue sections were reacted in 0.2 M phosphate buffer (pH 7.4) containing SDH at 37° C. for 10 minutes, washed with distilled water, and then sealed, followed by observation. […]

[11] abbreviates: 10 μM or 100 μM, 48 hours differentiation, Western blot, vs DMSO control (FIG. 1).

As to `CC(C(=O)O)c1ccc(N2Cc3ccccc3C2=O)cc1` (stereo not shown) [indoprofen, 2-[4-(1-oxo-1,3-dihydro-2H-isoindol-2-yl)phenyl]propionic acid], in data set [1] (vs corn oil control (FIG. 4A)), the “percentage of muscle fiber having increased SDH activity in extensor digitorum longus muscle” value is given as “increased”. In data set [1] (vs corn oil control (FIG. 4B)), the “percentage of muscle fiber having increased NADPH activity in extensor digitorum longus muscle” value is reported as “increased”. In addition, in data set [2] (mouse), the “lethal dose (LD)-50 for 50% mouse mortality” value was 700 mg per mouse body weight (kg). The heart size result in data set [3] (2 weeks (FIG. 3B (C))) is given as “no change”. In addition, in data set [3] (2 weeks, vs control group (FIG. 3B)), the “appearance of quadriceps muscle and gastrocnemius muscle (white vs red muscle)” value is “converted to red muscles”. Further, the “number of oxidative 2a type muscle fiber in extensor digitorum longus muscle” value in [4] (anti-Myh2a antibody, vs non-treated control (FIG. 3C)) was “increased”. In addition, in data set [4] (anti-Myh2b antibody, vs non-treated control (FIG. 3D)), the “number of glycolytic 2b type muscle fiber in extensor digitorum longus muscle” value is listed as “decreased”. In addition, in [5], the “myotube formation and fusion of myoblasts” value is reported as “increased”; the “percentage of the nuclei labeled with MHC antibody” value was “significantly increased”. Also, in data set [6] (setting [11]), the “expression of PGC-1α” value is “greatly increased”, the “expression of mitochondrial protein cytochrome C” value is given as “greatly increased”, the “expression of muscle differentiation marker MHC” value was “greatly increased” and the “expression of muscle differentiation marker myogenin” value is “greatly increased”. The expression of myoglobin result in [6] (setting [11]) is “greatly increased”. Besides, the “concentration of optimal activity” value in data set [6] (C2C12 myoblasts, protein expression (FIG. 1)) amounted to 100 µM. Moreover, in data set [7], the “expression of PGC-1α in tibialis anterior muscle” value is reported as “increased” and the “expression of myoglobin in tibialis anterior muscle” value was “increased”. Besides, in [8], the “PGC-1α promoter activity (luciferase luminescence, relative ratio to DMSO control)” value is “greatly increased”. The “weight of lower limb muscle (Sol, Gas, EDL, TA)” value in data set [9] was “increases”. Moreover, the “percentage of muscle fiber having increased SDH activity in extensor digitorum longus muscle” value in data set [10] (vs control group (FIG. 3E)) is on record as “increased”. Moreover, the “percentage of muscle fiber having increased NADPH activity in extensor digitorum longus muscle” value in data set [10] (vs control group (FIG. 3F)) is “increased”.

`CC(=O)Oc1ccccc1C(=O)O` [aspirin]: the ID50 in [2] (for reference) is on record as 250 mg/kg.

Source of the values: patent US10610515B2, “Composition including indoprofen and use thereof” (Samsung Electronics Co., Ltd., priority 2015, dated 2020).
